In patent publication US20180140578A1, “METHODS AND COMPOSITIONS FOR THE DIAGNOSIS AND SELECTIVE TREATMENT OF CANCER” (Board of Regents of the University of Texas System, priority 2016, published 2018):
pIC50: −log10 of the molar value. Like-named read-outs stand apart in the source and are kept apart here.

Tests used:
Test in all cases: IC50 assay, NSCLC cell lines (Cell Titer Glo, total ATP)
Format in all cases: cell-based
Details in all cases: Homo sapiens
A427 = system: A427
Description: (§1) Cells were plated at ˜15% confluence in a media comprising 5% concentration of fetal bovine serum supplemented with RPMI, which included 2 mM L-Glutamine in a 96 well dish. […] Following three days of incubation in a 5% CO2 incubator, the total ATP in each well was quantified using Cell Titer Glo (Promega). […] The solid lines represent the medians.

Calu-6 = system: Calu-6
Description: as §1

H1155 = system: H1155
Description: as §1

H1355 = system: H1355
Description: as §1

H1568 = system: H1568
Description: as §1

H1581 = system: H1581
Description: as §1

H1650 = system: H1650
Description: as §1

H1693 = system: H1693
Description: as §1

H1944 = system: H1944
Description: as §1

H2030 = system: H2030
Description: as §1

H2106 = system: H2106
Description: as §1

H2170 = system: H2170
Description: as §1

H2172 = system: H2172
Description: as §1

H2250 = system: H2250
Description: as §1

H2452 = system: H2452
Description: as §1

H2887 = system: H2887
Description: as §1

H358 = system: H358
Description: as §1

H441 = system: H441
Description: as §1

H522 = system: H522
Description: as §1

H820 = system: H820
Description: as §1

H838 = system: H838
Description: as §1

HCC2814 = system: HCC2814
Description: as §1

HCC366 = system: HCC366
Description: as §1

HCC4006 = system: HCC4006
Description: as §1

HCC4017 = system: HCC4017
Description: as §1

LC-2/AD = system: LC-2/AD
Description: as §1

WI38 = system: WI38
Description: as §1

[1] = read-out: Indisulam IC50 (log 10) (converted), U2AF1 WT
[2] = read-out: Indisulam IC50, U2AF1 WT

SMILES: NS(=O)(=O)c1ccc(S(=O)(=O)Nc2cccc3c(Cl)c[nH]c23)cc1 [Indisulam, indisulam]
- IC50 (A427; A-427, read-out: Indisulam IC50 (log 10) (converted), U2AF1 WT): 13.9 µM
- pIC50 (A427; A-427, read-out: Indisulam IC50, U2AF1 WT): 4.86
- IC50 (Calu-6; [1]): 1.51 µM
- pIC50 (Calu-6; [2]): 5.82
- IC50 (H1155; NCI-H1155, read-out: Indisulam IC50 (log 10) (converted), U2AF1 WT): 0.242 µM
- pIC50 (H1155; NCI-H1155, read-out: Indisulam IC50, U2AF1 WT): 6.62
- IC50 (H1355; NCI-H1355, read-out: Indisulam IC50 (log 10) (converted), U2AF1 WT): 2.5 µM
- pIC50 (H1355; NCI-H1355, read-out: Indisulam IC50, U2AF1 WT): 5.60
- IC50 (H1568; NCI-H1568, read-out: Indisulam IC50 (log 10) (converted), U2AF1 WT): 265 µM
- pIC50 (H1568; NCI-H1568, read-out: Indisulam IC50, U2AF1 WT): 3.58
- IC50 (H1581; NCI-H1581, read-out: Indisulam IC50 (log 10) (converted), U2AF1 WT): 19.2 µM
- pIC50 (H1581; NCI-H1581, read-out: Indisulam IC50, U2AF1 WT): 4.72
- IC50 (H1650; NCI-H1650, read-out: Indisulam IC50 (log 10) (converted), U2AF1 WT): 31.9 µM
- pIC50 (H1650; NCI-H1650, read-out: Indisulam IC50, U2AF1 WT): 4.50
- IC50 (H1693; NCI-H1693, read-out: Indisulam IC50 (log 10) (converted), U2AF1 WT): 5.17 µM
- pIC50 (H1693; NCI-H1693, read-out: Indisulam IC50, U2AF1 WT): 5.29
- IC50 (H1944; NCI-H1944, read-out: Indisulam IC50 (log 10) (converted), U2AF1 WT): 163 µM
- pIC50 (H1944; NCI-H1944, read-out: Indisulam IC50, U2AF1 WT): 3.79
- IC50 (H2030; NCI-H2030, read-out: Indisulam IC50 (log 10) (converted), U2AF1 WT): 79.1 µM
- pIC50 (H2030; NCI-H2030, read-out: Indisulam IC50, U2AF1 WT): 4.10
- IC50 (H2106; [1]): 0.616 µM
- pIC50 (H2106; [2]): 6.21
- IC50 (H2170; NCI-H2170, read-out: Indisulam IC50 (log 10) (converted), U2AF1 WT): 29.6 µM
- pIC50 (H2170; NCI-H2170, read-out: Indisulam IC50, U2AF1 WT): 4.53
- IC50 (H2172; NCI-H2172, read-out: Indisulam IC50 (log 10) (converted), U2AF1 WT): 20.5 µM
- pIC50 (H2172; NCI-H2172, read-out: Indisulam IC50, U2AF1 WT): 4.69
- IC50 (H2250; [1]): ≥ 500 µM
- pIC50 (H2250; [2]): 2.93
- IC50 (H2452; NCI-H2452, read-out: Indisulam IC50 (log 10) (converted), U2AF1 WT): 1.21 µM
- pIC50 (H2452; NCI-H2452, read-out: Indisulam IC50, U2AF1 WT): 5.92
- IC50 (H2887; NCI-H2887, read-out: Indisulam IC50 (log 10) (converted), U2AF1 WT): 9.63 µM
- pIC50 (H2887; NCI-H2887, read-out: Indisulam IC50, U2AF1 WT): 5.02
- IC50 (H358; NCI-H358, read-out: Indisulam IC50 (log 10) (converted), U2AF1 WT): ≥ 500 µM
- pIC50 (H358; NCI-H358, read-out: Indisulam IC50, U2AF1 WT): 2.55
- IC50 (H441; NCI-H441, read-out: Indisulam IC50 (log 10) (converted), U2AF1 S34F): 59.5 µM
- pIC50 (H441; NCI-H441, read-out: Indisulam IC50, U2AF1 S34F): 4.23
- IC50 (H522; NCI-H522, read-out: Indisulam IC50 (log 10) (converted), U2AF1 WT): 1.22 µM
- pIC50 (H522; NCI-H522, read-out: Indisulam IC50, U2AF1 WT): 5.91
- IC50 (H820; NCI-H820, read-out: Indisulam IC50 (log 10) (converted), U2AF1 WT): 5.17 µM
- pIC50 (H820; NCI-H820, read-out: Indisulam IC50, U2AF1 WT): 5.29
- IC50 (H838; NCI-H838, read-out: Indisulam IC50 (log 10) (converted), U2AF1 WT): 1.03 µM
- pIC50 (H838; NCI-H838, read-out: Indisulam IC50, U2AF1 WT): 5.99
- IC50 (HCC2814; [1]): 8.72 µM
- pIC50 (HCC2814; [2]): 5.06
- IC50 (HCC366; [1]): 6.91 µM
- pIC50 (HCC366; [2]): 5.16
- IC50 (HCC4006; [1]): 0.735 µM
- pIC50 (HCC4006; [2]): 6.13
- IC50 (HCC4017; [1]): 12.6 µM
- pIC50 (HCC4017; [2]): 4.90
- IC50 (LC-2/AD; read-out: Indisulam IC50 (log 10) (converted), U2AF1 S34F): 0.376 µM
- pIC50 (LC-2/AD; read-out: Indisulam IC50, U2AF1 S34F): 6.42
- IC50 (WI38; WI-38, read-out: Indisulam IC50 (log 10) (converted), U2AF1 WT): 10 µM
- pIC50 (WI38; WI-38, read-out: Indisulam IC50, U2AF1 WT): 5.00
